This note sets out measurements from patent publication US9408387B2, “Safening 6-amino-2-(substituted phenyl)-5-substituted-4-pyrimidinecarboxylate herbicide injury on cereal crops” (Dow AgroSciences LLC, priority 2009, dated 2016).

Common to all, as to format: in vivo
Assay [1] has as its system spring barley (Hordeum vulgare L; HORVS). As to the kind of experiment: Postemergence herbicidal safening in cereal crops, greenhouse, visual injury: spring barley. As to conditions: Hordeum vulgare, post-emergence, 480 h, 20-22 d, read-out: HORVS Ob (visual injury); for pest or weed control at 35 g/ha: herbicide alone 35 g ae/ha. How it is done: (§1) Evaluation of Postemergence Herbicidal Safening in Cereal Crops
(§2) Seeds of the desired test plant species were planted in Sun Gro MetroMix® 306 planting mixture, which typically has a pH of 6.0 to 6.8 and an organic matter content of about 30 percent, in plastic pots with a surface area of 103.2 square centimeters (cm^2). When required to ensure good germination and healthy plants, a fungicide treatment and/or other chemical or physical treatment was applied. The plants were grown for 7-36 days (d) in a greenhouse with an approximate 14-hour (h) photoperiod which was maintained at about 18° C. during the day and 17° C. during the night. Nutrients and water were added on a regular basis and supplemental lighting was provided with overhead metal halide 1000-Watt lamps as necessary. The plants were employed for testing when they reached the second or third true leaf stage.
(§3) Treatments consisted of the acids or esters of compounds 1-10 and cloquintocet-mexyl (CQC-M), fenchlorazole-ethyl, mefenpyr-diethyl alone and in combination. Weighed amounts of acid or methyl esters of the compounds of formula (I) were dissolved in a volume of 97:3 v/v acetone/dimethylsulfoxide (DMSO) to obtain concentrated solutions. […] The concentrated solutions of the test compound were diluted with the addition of an aqueous mixture containing acetone, water, isopropyl alcohol, DMSO, Agri-Dex crop oil concentrate, and Triton® X-77 surfactant in a 64.7:26.0:6.7:2.0:0.7:0.01 v/v ratio. Test compounds were diluted to the appropriate application rate with a dilution solution which was prepared by mixing the appropriate volume of 97:3 v/v acetone/DMSO and the appropriate volume of an aqueous mixture containing acetone, water, isopropyl alcohol, DMSO, Agri-Dex crop oil concentrate, and Triton® X-77 surfactant in a 64.7:26.0:6.7:2.0:0.7:0.01 v/v ratio. Compound requirements are based upon a 12 mL application volume at a rate of 187 liters per hectare (L/ha). The concentrated solutions of the safener were prepared following the same procedure. Weighed amounts of safener were dissolved in a volume of 97:3 v/v acetone/DMSO to obtain concentrated safener solutions.
(§4) Spray solutions of the herbicide safener and test compound mixtures were prepared by adding the concentrated solutions to the appropriate amount of dilution solution to form 12 mL spray solution with active ingredients in combinations.
(§5) Formulated compounds were applied to the plant material with an overhead Mandel track sprayer equipped with 8002E nozzles calibrated to deliver 187 L/ha over an application area of 0.503 square meters (m^2) at a spray height of 18 inches (43 centimeters (cm)) above average plant canopy. Control plants were sprayed in the same manner with the solvent blank.
(§6) The treated plants and control plants were placed in a greenhouse as described above and watered by sub-irrigation to prevent wash-off of the test compounds. After 20-22 d, the condition of the test plants as compared with that of the control plants was determined visually and scored on a scale of 0 to 100 percent where 0 corresponds to no injury and 100 corresponds to complete kill.
(§7) Colby's equation was used to determine the herbicidal effects expected from the mixtures (Colby, S. R. Calculation of the synergistic and antagonistic response of herbicide combinations. Weeds 1967, 15, 20-22.).
(§8) The following equation was used to calculate the expected activity of mixtures containing two active ingredients, A and B: Expected=A+B−(A×B/100)
(§9) A=observed efficacy of active ingredient A at the same concentration as used in the mixture.
(§10) B=observed efficacy of active ingredient B at the same concentration as used in the mixture.

The subject of assay [2] is purple deadnettle (Lamium purpureum L; LAMPU). As to the kind of experiment: Postemergence herbicidal activity, greenhouse, visual injury: purple deadnettle. To be noted: Lamium purpureum, post-emergence, 480 h, 20-22 d, read-out: LAMPU Ob (visual injury). As to the method: as §1, §2, §3, §4, §5, §6, §7, §8, §9, §10
Assay [3] has as its system spring wheat (Triticum aestivum L; TRZAS). Description: Postemergence herbicidal safening in cereal crops, greenhouse, visual injury: spring wheat. To be noted: Triticum aestivum, post-emergence, 480 h, 20-22 d, read-out: TRZAS Ob (visual injury); for pest or weed control at 35 g/ha: herbicide alone 35 g ae/ha. How it is done: as §1, §2, §3, §4, §5, §6, §7, §8, §9, §10

Assay [4] deals with corn poppy (Papaver rhoeas L; PAPRH). Description: Postemergence herbicidal activity, greenhouse, visual injury: corn poppy. As to conditions: 20-22 d. As to the method: as §1, §2, §3, §4, §5, §6, §7, §8, §9, §10
Assay [5] has as its system lamb's-quarters (Chenopodium album L; CHEAL). As to the kind of experiment: Postemergence herbicidal activity, greenhouse, visual injury: lamb's-quarters. As to conditions: herbicide alone 35 g ae/ha; 20-22 d. How it is done:
as §1, §2, §3
Spray solutions of the herbicide safener and test compound mixtures were prepared by adding the concentrated solutions to the appropriate amount of dilution solution to form 12 mL spray solution with active ingredients in combinations. […]
The treated plants and control plants were placed in a greenhouse as described above and watered by sub-irrigation to prevent wash-off of the test compounds. After 20-22 d, the condition of the test plants as compared with that of the control plants was determined visually and scored on a scale of 0 to 100 percent where 0 corresponds to no injury and 100 corresponds to complete kill. […]

Assay [6] concerns kochia (Kochia scoparia L; KCHSC). As to the kind of experiment: Postemergence herbicidal activity, greenhouse, visual injury: kochia. As to conditions: 20-22 d. As to the method:
as §1, §2, §3, §4, §5, §6, §7, §8, §9, §10

The test system of assay [7] is winter barley (Hordeum vulgare L; HORVW). As to the kind of experiment: Postemergence herbicidal safening in cereal crops, greenhouse, visual injury: winter barley. As to conditions: herbicide alone 8.75 g/ha; 20-22 d. As to the method: as §1, §2, §3, §4, §5, §6, §7, §8, §9, §10
Assay [8] has as its system durum wheat (Triticum durum L; TRZDU). Description: Postemergence herbicidal safening in cereal crops, greenhouse, visual injury: durum wheat. To be noted: herbicide alone 8.75 g/ha; 20-22 d. As to the method:
as §1, §2, §3, §4, §5, §6, §7, §8, §9, §10

Assay [9] deals with winter wheat (Triticum aestivum L; TRZAW). Description: Postemergence herbicidal safening in cereal crops, greenhouse, visual injury: winter wheat. To be noted: herbicide alone 8.75 g/ha; 20-22 d. As to the method:
as §1, §2, §3, §4, §5, §6, §7, §8, §9, §10

Take `COc1c(N)nc(-c2ccc(C)cc2)nc1C(=O)O` [Compound 6, 6-amino-2-p-tolyl-5-methoxypyrimidine-4-carboxylic acid]: the pest or weed control at 35 g/ha was 25% in assay [1] and 35% in assay [3]. The pest or weed control at 70 g/ha in assay [1] (herbicide alone 70 g/ha) turned out to be 20%; in assay [2] (herbicide alone 70 g/ha), 75%; in assay [3] (herbicide alone 70 g/ha), 20%. In addition, the values for the pest or weed control at 140 g/ha in assay [1] (herbicide alone 140 g/ha), in assay [2] (herbicide alone 140 g/ha) and in assay [3] (herbicide alone 140 g/ha) were 40%, 80% and 55%, respectively. Moreover, the entries for the “PAPRH Ob (visual injury)” value in assay [4] (herbicide alone 70 g/ha) and in assay [4] (herbicide alone 140 g/ha) were 97% and 100%, respectively. The “CHEAL Ob (visual injury)” value in assay [5] was found to be 83%. The “KCHSC Ob (visual injury)” value in assay [6] (herbicide alone 70 g/ha) came out at 60%; in [6] (herbicide alone 140 g/ha) it was 70%.
For `COc1c(N)nc(-c2ccc(C(F)(F)F)cc2)nc1C(=O)O` [Compound 3, 6-amino-2-(4-trifluoromethylphenyl)-5-methoxypyrimidine-4-carboxylic acid], the pest or weed control at 8.75 g/ha in assay [1] (herbicide alone 8.75 g/ha) came to 13%; in assay [3] (herbicide alone 8.75 g/ha), 15%. Also, the pest or weed control at 35 g/ha in [1] stood at 50%; in assay [3], 75%. For the same compound, the “HORVW Ob (visual injury)” value in assay [7] is 8%. Moreover, the “CHEAL Ob (visual injury)” value in assay [5] worked out at 10%. In addition, the “TRZDU Ob (visual injury)” value in assay [8] is listed as 7%. Besides, in assay [9], the “TRZAW Ob (visual injury)” value amounted to 17%.
